A melting point compilation (Tetko et al.; mined from patent text by program, amines drawn as free bases though some values may be those of a salt)

Compound | melting point [°C]
CC(=O)OCn1cc(Cl)c(-c2cc(Cl)cc(Cl)c2)n1 | 95
CC1(C)CC(SCc2c(F)cccc2F)=NO1 | 77 to 80
CCC(C)(COc1nn2nc(C)nc2cc1C)CS(N)(=O)=O (stereo unspecified) | 194 to 195
NC(=O)N(O)Cc1cscc1Br | 134 to 136
CC(C)(C)c1ccc(S(=O)(=O)/C=C/C(N)=O)cc1 | 151
CN(C)N1C(=O)C(=Cc2nc(C(C)(C)C)c(O)c(C(C)(C)C)n2)SC1=S | 100 to 105
O=[N+]([O-])c1cc(C2OCCCO2)ccc1O | 70 to 71
COC(=O)c1cc(-n2cnn(Cc3ccc(F)cc3)c2=O)nn1Cc1ccc(OC)cc1 | 139 to 140
CCCN(C1CCN(C)CC1)S(=O)(=O)c1ccc(Nc2nccc(Nc3ccc(F)cc3)n2)cc1 | 232
COC(=O)Nc1cc(Cl)nc(N)n1 | 225 to 226
CCCc1cccc2c(/C=C(\C)C(=O)O)cc(OC)c(O)c12 | 67 to 68
O=c1[nH]c(CCl)c(Br)c(=O)[nH]1 | 245
COc1ccc(S(=O)(=O)C(CCCc2ccccc2)(CCCc2ccccc2)C(=O)NO)cc1 | 118 to 120
O=C1C2CN(Cc3ccccc3)CC2C(=O)N1Cc1ccccc1 (stereo unspecified) | 100
c1csc(-c2nc(COc3ccc(CCCCn4ccnc4)cc3)cs2)c1 | 108 to 109
CCOc1cc2ncc(C#N)c(Nc3ccc4c(c3)CCC4)c2cc1OCC | 85 to 88
O=C(CC(=O)C1CCCCC1)C1CCCCC1 | 50 to 52
COc1cc(-c2cc3ccccc3[nH]2)ccc1OS(=O)(=O)c1ccccc1 | 156
Clc1cc(CCc2ccccn2)c2oc(-c3cccc4cccnc34)nc2c1 | 110 to 111
CCCC(=O)c1ccc(=O)[nH]c1CCC | 86 to 88
CN1C(=O)N(CCN=C=O)C(C)(C)C1=O | 62
CC(=O)c1ccc2sc3ccc(C(C)=O)cc3c2c1 | 207 to 210
CC(=O)Nc1ccc(C2=NNC(=O)NC2C)cc1Cl (stereo unspecified) | 250 to 252
COc1ccc(Cl)cc1CC1CNC(=O)CN(S(=O)(=O)c2ccc(Cl)cc2)C1=O (stereo unspecified) | 110 to 112

Compound | melting point [°C]
COC(=O)Cc1ccc(C(C)(C)C)c([N+](=O)[O-])c1 | 92 to 95
CC[C@H]1CN(c2c(F)cc3c(=O)c(C(=O)O)cn4c3c2OC[C@@H]4C)C[C@H]1NC | 211 to 213
COC(=O)c1cccc(C(=O)c2[nH]c3cc(Cl)ccc3c2NC(C)=O)c1 | 190 to 193
N#Cc1ccc(C2NC(=O)NC2=O)c(SCCc2ccccc2)c1 (stereo unspecified) | 198
O=C1Nc2c(O)cc(Cl)cc2C(C#CC2CC2)(C(F)(F)F)O1 (single isomer, unassigned; (-)) | 170 to 172
Nc1nc(OCc2ccc(F)cc2)ncc1F | 129 to 131
CN(C)C1CC=C(c2c[nH]c3ccc(N)cc23)CC1 (stereo unspecified) | 63 to 65
Cc1cccc(NC(=O)NCC(=O)N(CC(=O)OC2CCCCC2)c2ccccc2)c1 | 176
COc1ccccc1OCCNCCCc1c[nH]c2ccccc12 | 101 to 102
CCOCCNC(=O)COc1ccn2nc(-c3ccccc3)c(-c3ccc(=O)n(C(C)C)n3)c2c1 | 126 to 128
N#Cc1ccc(Oc2cc(F)cc(F)c2)c([N+](=O)[O-])c1 | 132 to 136
O=C(Nc1cc2ncc(CN3CCCC3)cc2cc1F)c1ccc(-c2ccc(Cl)cc2)cc1 | 218 to 220
CC1(C)COC(C(C)(C)Oc2ccc(Cl)cc2)=N1 | 59 to 61
C1=COc2ccc3[nH]c4c(c3c2=C1)C=CN=CC=4 | > 177
CCC(=O)N(C(=O)CC)c1nc2c(c(-c3ccccc3)cn2C)c(=O)n1C | 215 to 217
CCCn1nc(-c2ccc(O)c(F)c2)c2cccc(-c3ccccc3)c21 | 177 to 178
CCOC(=O)c1cnc2c(N=C3C(=O)OC(C)(C)OC3=O)cccc2c1 | 228 to 231
CCSc1ccc(Oc2ccc(C(=O)c3ccccc3)cc2)nc1C#N | 88 to 90
O=c1ccn(CC(O)CO)c(C(OC2CCCCO2)c2ccccc2)c1OCc1ccccc1 (stereo unspecified) | 190 to 206
O=[N+]([O-])C=C1CN=C(c2ccccc2Cl)c2cc(Cl)ccc2N1 | 182 to 185
O=C(c1cccs1)c1cnn2c(-c3cccc(-c4nnn(Cc5cccnc5)n4)c3)ccnc12 | 95
COc1cc(-c2cc(C(F)(F)F)nn2-c2ccc(S(N)(=O)=O)c(F)c2)ccc1-c1cscn1 | 97 to 99
COc1ccc(C(=O)Oc2cc(OCCO/N=C/c3ccc(C(C)(C)C)cc3)ccc2C(=O)O)cc1 | 116 to 118
C=CCOc1nc2cccc(C(=O)OC)c2n1Cc1ccc(-c2ccccc2-c2nnn[nH]2)cc1 | 154 to 156

The next lines start with the values.

melting point [°C] | Compound
41 to 42 | CC1(C)CC(SCc2c(C(F)(F)F)nn(C(F)F)c2Cl)=NO1
176 to 177 | Cn1cc([N+](=O)[O-])c(C(=O)NC2CCCC2)n1
129 to 130 | COC(=O)c1nc(OC)c2ccccc2n1
228 to 229 | CCc1nc2c(C)cc(C)nc2n1-c1ccc(CCNC(=O)NS(=O)(=O)c2ccncc2)cc1
85 | CCCN(Cc1ccc(C(=O)N(CCC)C2CCc3ncsc3C2)cc1)C1CCc2ncsc2C1 (stereo unspecified)
98 to 100 | COc1ccc(C2(O)C(c3ccccc3Cl)SC3=NCCCCN32)cc1OC (stereo unspecified)
106 to 107 | COc1cc2c(cc1OCc1ccccc1)CCN(Cc1cccc(OC)c1OC)C2
110 to 112 | CC1c2cc(Cl)ccc2-c2ccc(Cl)cc21
143 to 144 | CC(=O)N1c2ccccc2-n2cc(Cc3cccnc3)c(=O)c3cccc1c32
154 to 155 | O=C1Nc2ccc(Cl)cc2C(OCC2CC2)(C(F)(F)F)CN1C1CC1 (stereo unspecified)
283 to 284 | CNc1cccc(-c2ccc(C(=O)O)c(=O)[nH]2)c1
106 to 108 | COC1(c2csc(Sc3ccc4c(c3)CCC(=O)N4C)c2)CCOCC1
46 to 63 | CN1CCN(C2=Nc3ccccc3Sc3ccccc32)C[C@H]1Cc1ccccc1
119 to 121 | CC(=O)OCc1cc(COC(C)=O)n(C(c2ccccc2)(c2ccccc2)c2ccccc2)n1
139 to 141 | CCc1cccc(CC)c1N(C=O)CC(=O)O
194 to 197 | CC1=NS(=O)(=O)N(C)C(Oc2ccc([N+](=O)[O-])cc2)=N1
163 to 165 | CCOC(=O)c1ccc(NC(=O)CCc2ccc(Cl)cc2)cc1
99 to 101 | CCCCCCCCCCCCCCCCCCNC(=O)c1cc(OC(C)=O)cc(OC(C)=O)c1
> 300 | O=S(=O)(O)c1cc(NCc2c(F)c(F)c(C(F)(F)F)c(F)c2F)ccc1O
32 to 33 | C=C(C)COc1ccc(C=CC(=O)OCCCC)cc1
149 | CCOC(=S)NCCN1CCC(Nc2nc3ccccc3n2Cc2ccc(F)cc2)CC1
176 to 177 | COc1cc2sc(C(=N)NO)cc2cc1OC(F)F
202 to 204 | CCCC1C(=O)C(NC(=O)C2CCc3ccccc3C2)=C(N)C(CCC)C1=O (stereo unspecified)
63 | N#CN=C(N)NCCCCNC(=O)[C@@H](Cc1ccccc1)NC(=O)CCCC(=O)O
94 to 95 | CCc1sc2nc(C(=O)OC)cn2c1C
200 to 201 | Nc1cc(-c2nnc(SCc3ccc(Cl)cc3)o2)ccn1
98 to 100 | O=C(c1ccc(F)cc1)c1ccc(Cl)cn1

melting point [°C] | Compound
128 | C=C(C)C(=O)OCCCCc1ccc(OC(F)(F)c2c(F)cc(-c3ccc(CCCCOC(=O)C(=C)C)cc3F)cc2F)cc1
217 to 218 | Cc1cccc(C(=O)Nc2c[nH]nc2C(=O)NCC(C)(C)CO)n1
214 | Cc1[nH]c(-c2ccccc2)nc1C(O)C(C)C (stereo unspecified)
122 to 125 | CN(CCc1ccccc1)C(=O)Cn1cc(CCC(=O)O)c2cc(OCc3ccccc3)ccc21
127 to 128 | CNC(=O)c1cc(F)cc(Cl)c1Oc1cccc(OC)c1C
63 to 65 | COC(=O)c1cccc(-c2cccc(N)c2)c1
95 to 98 | N#CC(c1ccccc1)(c1ccccc1)n1ccnc1
130 to 136 | CNC1=NN(C(=O)c2ccccc2)C(C)(C)S1
208 to 210 | COc1ccc(CNc2ccc(C(=O)O)cc2)cc1
213 to 214 | COc1ccc(Oc2cc3c(cc2Cl)C=C(C(=O)O)C(C(F)(F)F)O3)cc1 (stereo unspecified)
210 to 212 | CC(C)(C)c1cc(-c2nn(CC(=O)O)c3ncccc23)cc(C(C)(C)C)c1O
268 | O=C1NC(=O)C2(c3ccc4ccc(Cl)nc4n3)C=CC=CC12 (stereo unspecified)
216 to 218 | CC(=O)Nc1c(C(=O)c2cc(CO)ccn2)[nH]c2cc(Cl)ccc12
228 to 230 | CCOC(=O)c1cnc2scnn2c1=O
136 to 138 | COc1ccc2c(c1)c(CC(=O)O)c(C)n2C(=O)c1ccc(OC(F)(F)F)cc1
140 to 142 | CC(=O)Nc1ccc(-c2cc(C(=O)c3cc(-c4ccc(NC(C)=O)cc4)c(N4CCOCC4)s3)sc2N2CCOCC2)cc1
254 to 256 | Cc1ccc(-c2c(C(=O)O)oc(=O)c3cnccc23)cc1
106 to 107 | COc1cc(-c2cc(=O)c3ccc(OCC(O)CNC(C)C)cc3o2)cc(OC)c1OC (stereo unspecified)
211 to 213 | Cc1ccc2c(Cc3nc4c(F)c(F)cc(F)c4s3)cn(CC(=O)O)c2c1
192 to 193 | O=C(CCCOc1cccc(CN2CCCCC2)c1)Nc1nc(CCc2ccccc2)n[nH]1
43 to 45 | CON=C(C#CCN1CCOCC1)C(=O)OC
96 to 98 | CCOC(=O)c1c(Cn2cnnc2)nc2sc(C)c(C)c2c1-c1ccc2c(c1)OCO2
88 to 89 | COC(=O)c1ccc(Cl)cc1NC(=O)CSc1ccccc1C
134 to 135 | COc1ccc(C(=C(C)C(=O)O)c2ccc(OC)cc2)cc1
158 to 160 | COc1ccc2nc(Oc3c(Cl)cc(N)cc3Cl)sc2c1
155 to 157 | Nc1ccc(Cl)cc1C(=O)NCCCn1ccnc1
